From patent publication USRE38551E1, “Anticonvulsant enantiomeric amino acid derivatives” (priority 1996, dated 2004) come the findings set out here.

Format in all cases: in vivo
In data set [1] the test system is maximal electroshock (MES) induced seizure. The data set is described as follows: maximal electroshock (MES) seizure test, mice (ip). The conditions noted are these: ip; for MES, ED50 / PI protective index (TD50/MES ED50): mice; for MES, ED50: at time of peak effect (hours in brackets). The source says: (§1) Compounds were screened for anticonvulsant activity in both male albino Carthworth Farms No. 1 mice (ip route) and male albino Sprague Dawley rats [oral (po) route]. Activity was established using the electrical (maximal electroshock or MES) test. In the MES test, a drop of electrolyte solution with anesthetic (0.5% butacaine hemisulfate in 0.9% sodium chloride) was used in the eyes of the animals prior to positioning the corneal electrodes and delivery of current. […] Protection endpoints were defined as the abolition of the hind limb tonic extensor component of the induced seizure. In mice, effects of compounds on forced spontaneous motor activity were determined using the rotorod test. […] Normally under these conditions, mice maintain their balance almost indefinitely. In rats, motor impairment is assessed by observing for overt evidence of ataxia, abnormal gait and stance, and/or loss of placing response and muscle tone. In the mouse identification screening study all compounds were given at three dose levels (30, 100, 300 mg/kg) and two time periods (0.5 hours, 4 hours). Typically, in the MES seizures test one animal was tested at 30 mg/kg and 300 mg/kg, and three animals at 100 mg/kg. In the rotored toxicity test four animals were tested at 30 mg/kg, and 300 mg/kg, and eight animals at 100 mg/kg.
(§2) The quantitative determination of the median effective (ED50) and toxic doses (TD50) was conducted at previously calculated times of peak effect. Groups of at least eight animals were tested using different doses of test compound until at least two points wee determined between 100 and 0% protection and minimal motor impairment.
(In general: Protection in the maximal electroshock model is a classic sign of anticonvulsant action.)

The test system of data set [2] is motor impairment. As to the kind of experiment: motor impairment (ataxia, gait, stance) observation, rats (po). The conditions noted are these: rat, po, at time of peak effect. The source says:
(§3) Compounds were screened for anticonvulsant activity in both male albino Carthworth Farms No. 1 mice (ip route) and male albino Sprague Dawley rats [oral (po) route]. Activity was established using the electrical (maximal electroshock or MES) test. In the MES test, a drop of electrolyte solution with anesthetic (0.5% butacaine hemisulfate in 0.9% sodium chloride) was used in the eyes of the animals prior to positioning the corneal electrodes and delivery of current. A 60 cycle alternating current was administered for 0.2 sec. in both species, 50 mA in mice and 150 mA in rats. Protection endpoints were defined as the abolition of the hind limb tonic extensor component of the induced seizure. In mice, effects of compounds on forced spontaneous motor activity were determined using the rotorod test. […] Normally under these conditions, mice maintain their balance almost indefinitely. In rats, motor impairment is assessed by observing for overt evidence of ataxia, abnormal gait and stance, and/or loss of placing response and muscle tone. In the mouse identification screening study all compounds were given at three dose levels (30, 100, 300 mg/kg) and two time periods (0.5 hours, 4 hours). Typically, in the MES seizures test one animal was tested at 30 mg/kg and 300 mg/kg, and three animals at 100 mg/kg. In the rotored toxicity test four animals were tested at 30 mg/kg, and 300 mg/kg, and eight animals at 100 mg/kg.
(§4) The quantitative determination of the median effective (ED50) and toxic doses (TD50) was conducted at previously calculated times of peak effect. Groups of at least eight animals were tested using different doses of test compound until at least two points wee determined between 100 and 0% protection and minimal motor impairment. The dose of candidate substance required to produce the defined end-point in 50% of the animals in each test and the 95% confidence interval was calculated.

Data set [3] deals with motor impairment (rotorod test). As to the kind of experiment: rotorod neurologic toxicity test, mice (ip). As to conditions: mice, ip, rotorod test, at time of peak effect.
Description: as §1, §4

Data set [4] has as its system maximal electroshock (MES) induced seizure. As to the kind of experiment: maximal electroshock (MES) seizure test, rats (po). As to conditions: rat, po.
Description: as §1, §2

Data set [5] is described as follows: rotorod neurologic toxicity test, mice (ip). As to conditions: male, Carthworth Farms No. 1, mouse, in vivo; mice, ip, rotorod test, at time of peak effect; read-out: tox, TD50.
Description: as §1, §4
(In the rotarod test animals must keep their balance on a rotating rod.)

Data set [6] in a line: motor impairment (ataxia, gait, stance) observation, rats (po). As to conditions: male, Sprague Dawley, in vivo; rat, po, at time of peak effect; read-out: tox, TD50.
Description: as §3, §4

Take `COC(NC(C)=O)C(=O)NCc1ccccc1` (racemic) [compound 4, D,L-2-Acetamido-N-benzyl-2-methoxyacetamide]: the “MES, ED50” value in data set [1] turned out to be 98.30 mg/kg.
`COCC(NC(C)=O)C(=O)NCc1ccccc1` (racemic) [compound 9, N-Benzyl 2-Acetamido-3-methoxypropionamide(racemic mixture)]: the “tox, TD50” value in data set [2] is 386.8 [1] mg/kg.
As for `COC[C@@H](NC(C)=O)C(=O)NCc1cccc(F)c1` [Ex. 3, R-N-(3-Fluorobenzyl)2-Acetamide-3-Methoxypropionamide], the “tox, TD50” value in data set [3] is 46.3 [0.25] mg/kg; in data set [2], >396 [0.5] mg/kg. Besides, the entries for the “PI protective index (TD50/MES ED50)” value in data set [1] and in data set [4] were 6.7 and greater than 57.7, respectively. Besides, the entries for the “MES, ED50” value in data set [1] and in data set [4] (at time of peak effect) were 6.9 [0.25] mg/kg and 6.9 [0.5] mg/kg, respectively.
Take `CC(=O)N[C@H](C)C(=O)NCc1ccccc1` [compound 2, N-Acetyl-D-alanine-N′-benzylamide]: the “tox, TD50” value in data set [3] was 2.14 [0.5] mg/kg. For the same compound, the “PI protective index (TD50/MES ED50)” value in data set [1] is listed as 3.9; in data set [4] it was greater than 35.2. In addition, the entries for the “MES, ED50” value in data set [1] and in data set [4] (at time of peak effect) were 54.8 [0.5] mg/kg and 28.4 [4] mg/kg, respectively.
Take `CC(=O)N[C@@H](C)C(=O)NCc1ccccc1` [compound 3, N-Acetyl-L-alanine-N′-benzylamide]: the “tox, TD50” value in data set [3] was 841 [0.5] mg/kg. Further, in data set [1], the “PI protective index (TD50/MES ED50)” value is 1.5 and the “MES, ED50” value was 548 [0.5] mg/kg.
The like results for `CC(=O)NC(C(=O)NCc1ccccc1)c1ccco1` (stereo not drawn) [compound 5, (D,L)-α-Acetamido-N-benzyl-2-furanacetamide] were, in that order, “˜40 mg/kg”, greater than 3.9 and 10.3 mg/kg.
As for `CC(=O)N[C@H](C(=O)NCc1ccccc1)c1ccco1` [compound 7, (L)-(+)-α-Acetamido-N-benzyl-2-furanacetamide], the “tox, TD50” value in data set [3] is reported as greater than 200 mg/kg. Besides, the “MES, ED50” value in data set [1] was greater than 25. mg/kg.
On to `COC[C@H](NC(C)=O)C(=O)NCc1ccccc1` [compound 11, (S)-N-Benzyl 2-Acetamido-3-methoxypropionamide], for which the results for the TD50 in data set [5] and in data set [6] were greater than 300 mg/kg and greater than 30 mg/kg, respectively. Also, the ED50 in data set [1] (Mus musculus, read-out: MES, ED50) was 100 to 300 mg/kg; in data set [4] (at time of peak effect, read-out: MES, ED50) it was greater than 30 mg/kg.
Take `CC(=O)N[C@H](CO)C(=O)NCc1ccccc1` [compound 12, (R)-N-Benzyl 2-Acetamidohydracylamide]: the “tox, TD50” value in data set [3] is >500 [2] mg/kg. In addition, in data set [1], the “PI protective index (TD50/MES ED50)” value is listed as greater than 9.4 and the “MES, ED50” value is 53.4 [2] mg/kg.

For orientation: TD50 means the 50% point of the dose-response relation for the toxic effect studied. As usually defined, the ED50 is the midpoint of the dose-response relation.
